Results published in ChEMBL document CHEMBL3244025, “Carbocyclic arabinosyladenine, an adenosine deaminase resistant antiviral agent” (J Med Chem, 1977).

How the values were obtained:
P388 = test: Cytotoxicity against mouse P388 cells after 72 hrs by hemocytometric analysis; format: functional
[1] = Cytotoxicity against human Hep2 cells; format: cell-based; conditions: hep-2
Human alphaherpesvirus 1 = test: Antiviral activity against Herpes simplex virus type 1 HF infected in human Hep2 cells assessed as inhibition of virus-induced cytopathogenic effect; format: functional, HEp-2
[2] = Stability of the compound assessed as calf intestinal adenosine deaminase type 3-mediated deamination; format: ADME, Bos taurus; conditions: cattle
[3] = Stability of the compound assessed as calf intestinal adenosine deaminase type 3-mediated deamination in presence of C-ara-A; format: ADME, Bos taurus; conditions: cattle

Compound	LD50 (P388) [×10⁻⁵ M]	Activity [1] [µg/mL]	MED50 (Human alphaherpesvirus 1) [µg/mL]	Stability [2]	Stability [3]
Nc1ncnc2c1ncn2[C@@H]1C[C@H](CO)[C@@H](O)[C@@H]1O (racemic)	1	9	2.8	Stable	
Nc1ncnc2c1ncn2[C@@H]1O[C@H](CO)[C@@H](O)[C@H]1O [ADENOSINE]					Unstable
Nc1ncnc2c1ncn2[C@@H]1O[C@H](CO)[C@@H](O)[C@@H]1O [VIDARABINE]	1			Unstable	Unstable
